In data set [1] the test system is NCI-H460 (large cell lung carcinoma) cells. In words: Antiproliferation assay (CELLTITER 96 AQueous, 72 h). Format: cell-based. To be noted: Homo sapiens. On the procedure:
Bifidenone was tested for its ability to inhibit the proliferation of human cancer cells in vitro as described in the following paragraph. IC50 is defined as the concentration of compound necessary to achieve 50% of the maximum growth inhibition.
For the antiproliferation assay, NCI-H460 (large cell lung carcinoma) or M14 (amelanotic melanoma) cells were grown in RPMI-1640 with 10% FBS supplemented with L-glutamine and HEPES. Cells were seeded into 96-well plates at 5×10^2 to 5×10^4 cells/well and allowed to adhere overnight; the medium was then removed. A stock solution of test compound in DMSO was diluted in medium to generate a series of working solutions. Aliquots (100 μL) of the working solutions were then added to the appropriate test wells to expose cells to the final concentrations of compound in a total volume of 100 μL. Seven different concentrations were tested, with 2-5 wells per concentration. Camptothecin was used as a positive control; wells containing vehicle without compound were used as negative controls. Plates were kept for 72 h in a 37° C., 5% CO2 incubator. After incubation, viable cells were detected with the CELLTITER 96 AQueous Non-Radioactive Cell Proliferation Assay (Promega), and IC50 values were determined using GraphPad Prism 5 software.

For the next data set, the system named is tubulin. In words: In vitro tubulin polymerization assay. In kind it is biochemical. As to conditions: absorbance readout, FIG. 3. On the procedure: To test the hypothesis that bifidenone inhibits cell proliferation by interfering with microtubule dynamics, it was tested in an in vitro tubulin polymerization assay. FIG. 3 illustrates inhibition of tubulin polymerization by bifidenone. Increased absorbance corresponds to increased polymerization.

The subject of data set [2] is NCI-H460 lung cancer cells. In words: Cell cycle analysis (propidium iodide, flow cytometry). In kind it is cell-based, human. As to conditions: NCI-H460, 1, 2, or 3× the IC50 for 6, 18, or 24 h. On the procedure: Antitubulin agents typically interfere with mitosis by disrupting the microtubule dynamics necessary for cell division. […] Cells were then treated with propidium iodide and analyzed using flow cytometry.
On the technique in general: In flow cytometry, cells or beads pass a laser one at a time.

For another data set, the system named is NCI-H460 cells. The data set is described as follows: Western blot analysis of G2/M markers. In kind it is cell-based, human. As to conditions: NCI-H460, 21 h. On the procedure: Nocodazole is known to cause G2/M arrest. Cell lysates were analyzed by western blot using the antibodies indicated on the left. Individual protein bands are designated on the right.

In data set [3] the test system is caspases 3 and 7 in NCI-H460 lung cancer cells. The data set is described as follows: Caspase 3/7 luminescent apoptosis assay. In kind it is cell-based, human. As to conditions: NCI-H460, varying concentrations. On the procedure: FIG. 6 illustrates Caspase assay. Enzyme activity of caspases 3 and 7 was determined using a luminescent assay. NCI-H460 lung cancer cells were treated with varying concentrations of bifidenone or the known antitubulin agents paclitaxel or colchicine. The readout of relative light units is proportional to total caspase 3 and 7 activity.

A further data set has as its system PARP and caspase-7. In words: Western blot of PARP and caspase-7 cleavage. Format: cell-based. As to conditions: FIG. 7.
Data set [4] has as its system colchicine binding site of tubulin. In words: Ultrafiltration-based tubulin competition assay. To be noted: free ligand by LC/MS. The text has this: (§1) In order to determine the binding site of bifidenone on tubulin, a published ultrafiltration-based competition assay was used. In this assay, tubulin is allowed to bind with a known ligand, and then free ligand is separated by ultrafiltration and analyzed by LC/MS. In the presence of a competitor, the concentration of free ligand increases. […] FIG. 8 illustrates tubulin competition assay. Each graph depicts the amount of unbound compound detected in the presence of varying concentrations of competitors. Known competitors were used as positive controls: podophyllotoxin for the colchicine site (left), vinblastine for the vincristine site (center), and docetaxel for the paclitaxel site (right). Amounts of free compound are expressed as percentages normalized to the amount of free compound detected in the presence of 100 μM known competitor.

Data set [5] deals with paclitaxel binding site of tubulin. In words: Ultrafiltration-based tubulin competition assay. To be noted: free ligand by LC/MS.
From the text: as §1

Data set [6] in a line: Mouse plasma concentration after IP injection. Format: in vivo, mice. On the procedure:
The bioavailabilities of certain compounds were examined in mice. Administration of the compounds was performed by intraperitoneal (IP) injection using a vehicle as known to those skilled in the art. To measure compound concentrations in plasma, blood is collected by cardiac puncture at a specified time after dosing. It is then centrifuged in a plasma separator tube with NaEDTA/NaF as the anticoagulant, and the resulting plasma is stored at −80° C. For analysis, an internal standard is added to a 200 μL aliquot of plasma, and the aliquot is extracted with ethyl acetate. The ethyl acetate extract is analyzed by LC/MS and quantitated using a standard curve prepared by adding known amounts of test compound and internal standard to 200 μL aliquots of blank mouse plasma.
Many vehicles can be used to examine bioavailability. Prior to administration, each vehicle was optimized based on compound solubility according to the formulation research conducted by Uckun et at (Uckun, F. M., Tibbles, H., Erbeck, D., Venkatachalam, T. K., Qazi, S., 2007). In vivo pharmacokinetics and toxicity of a novel hydrophilic oral formulation of the potent non-nucleoside reverse transcriptase inhibitor compound N′-[2-(2-thiophene)ethyl]-N′-[2-(5-bromopyridyl)]-thiourea (HI-443). Arzneimittelforschung 57, 218-226.). […] The concentration of PEG400 is modulated depending upon solubility of the compounds and the amount of water phase added.
With larger injections (75-100 mg/kg), plasma concentrations were >4 times the IC50 at 6 h.

The nature of data set [7]: Epimerization by TFA in HPLC solvents. In kind it is physicochemical. As to conditions: TFA (0.05%) in HPLC solvents. On the procedure:
To obtain additional bifidenone for antiproliferation assays, the remaining material from the Beilschmiedia specimen was fractionated. […] Consequently, future isolations were performed without TFA in the semipreparative steps. Ultimately, 79 μg of bifidenone was isolated.

We go through one compound from patent publication US20170073324A1, “Bifidenone Compositions and Methods of Use” (Sequoia Sciences, Inc., priority 2015, published 2017).

Where two headings read alike, the source gives them in different places. Some results are limits rather than exact numbers.

As usually defined, the IC50 is the concentration that gives 50% inhibition.

On to `C=CC[C@H]1C[C@]2([C@@H](C)Cc3ccc(OC)c(OC)c3)OCOC2=CC1=O` [bifidenone, (6S,7aR)-6-Allyl-7a-((S)-1-(3,4-dimethoxyphenyl)propan-2-yl)-7,7a-dihydrobenzo[d][1,3]dioxol-5(6H)-one], for which the half-maximal inhibitory concentration (IC50) in data set [1] (NCI-H460, 72 h, read-out: IC50 against NCI-H460) turned out to be 360 nM; in data set [1] (NCI-H460, as restated in Example VII, read-out: IC50 against NCI-H460 human lung cancer cells), 360 nM. Moreover, the “inhibition of tubulin polymerization” value in the data set on tubulin is recorded as “inhibits tubulin polymerization in a dose-dependent manner”. The cell cycle effect entry in data set [2] is “causes arrest in the G2/M phase of the cell cycle”. The “protein expression and phosphorylation patterns (Histone H3 Ser10, Myt1, Aurora A/B/C, cdc2 Tyr15)” value in the data set with NCI-H460 cells is recorded as “consistent with G2/M arrest”. For the same compound, the “apoptosis by enzymatic activity of caspases 3 and 7” value in data set [3] is on record as “undergo apoptosis”. In the data set on PARP and caspase-7, the “cleavage of caspase-7 and PARP” value is “cleavage of caspase-7 and PARP occurred”. In [4], the “competition for the colchicine binding site” value is given as “competes for the colchicine binding site”. Further, in data set [5], the “competition for the paclitaxel binding site” value is “weakly for the paclitaxel binding site”. Further, the “change of plasma concentration with vehicle” value in data set [6] (initial formulation diluted with up to 20% water) is on record as “not diminished”. Besides, the concentration at 1 h in data set [6] (mouse, plasma, 1 h post-injection, 40 mg/kg IP, vehicle 40% propylene glycol, 20% TWEEN-20, 20% PEG400, 20% ethanol) is over 360 nM. The “change of plasma levels with vehicle” value in data set [6] (propylene glycol decreased to 25%) is on record as “diminished”; in data set [6] (propylene glycol increased to 45% and TWEEN-20 decreased to <3%), “increased or were not diminished”. Further, the “stability to TFA” value in data set [7] is listed as “prone to epimerization”.
